“Also recorded” adds a separate entry of the source. Non-standard residues stand in square brackets, D forms with d. Residues, ends and D or L forms follow the SMILES beside them. *: point of attachment. Malonyl(2,2-Me2,histaminyl) = CC(C)(C(=O)NCCc1cnc[nH]1)C(=O)*; Ala(1H-tetrazol-5-yl) = N[C@@H](Cc1nnn[nH]1)C(=O)O; αMePhe(2-F) = C[C@](N)(Cc1ccccc1F)C(=O)O; Nle = CCCC[C@H](N)C(=O)O; Alloc = C=CCOC(=O)*
Experiments:
C57BL/6J male mice [1] = test: Dose response effect on intestinal mass in normal mice, 7 day dosing (FIG. 2); assay type: in vivo, mouse; conditions: daily sc
Method: The enhancement of the small bowel wet weight (over vehicle) is plotted as a function of the peptide dose. […] N=6 animals I grp.
C57BL/6J male mice (Charles River, Italy, ~8 weeks) are randomly allocated to the treatment group based on the baseline body weights. Animals are given free access to food and water during the whole duration of the study. Mice are dosed daily with the vehicle or test peptides via subcutaneous injection. On day 7, animals are sacrificed and segments from the upper small intestine (15 cm segment from the pylorus) are collected and weighed (see Example B).

human GLP1 receptor = target: T1, human GLP1 receptor (Homo sapiens, UniProt P43220); test: cAMP accumulation assay (HTRF), functional agonism of human GLP1 receptor in HEK cells; assay type: cell-based; conditions: HEK cells, human GLP1 receptor BacMam, 45 min 37° C.
T1 construct: expressed in transfected cells; host or cells: HEK cells, BacMam virus transduction
T1 sequence (P43220 24-463): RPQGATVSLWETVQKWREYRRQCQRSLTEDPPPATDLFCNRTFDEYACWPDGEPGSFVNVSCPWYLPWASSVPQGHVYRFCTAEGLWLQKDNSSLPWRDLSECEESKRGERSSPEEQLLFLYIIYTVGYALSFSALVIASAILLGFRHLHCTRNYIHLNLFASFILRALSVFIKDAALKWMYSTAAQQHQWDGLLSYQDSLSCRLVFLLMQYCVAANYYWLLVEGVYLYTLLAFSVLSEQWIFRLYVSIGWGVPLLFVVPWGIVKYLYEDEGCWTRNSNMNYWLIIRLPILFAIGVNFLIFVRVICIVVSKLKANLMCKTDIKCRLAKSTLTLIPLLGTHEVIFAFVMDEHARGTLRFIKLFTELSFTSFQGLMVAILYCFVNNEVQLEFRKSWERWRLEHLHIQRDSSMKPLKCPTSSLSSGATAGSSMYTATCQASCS

mouse GLP2 receptor = target: T2, mouse GLP2 receptor (Mus musculus, UniProt Q5IXF8); test: cAMP accumulation assay (HTRF), functional agonism of mouse GLP2 receptor in HEK cells; assay type: cell-based; conditions: HEK cells transiently transfected, 45 min 37° C.
T2 construct: expressed in transfected cells; host or cells: HEK cells, transient transfection with GeneJuice
T2 sequence (Q5IXF8 1-512): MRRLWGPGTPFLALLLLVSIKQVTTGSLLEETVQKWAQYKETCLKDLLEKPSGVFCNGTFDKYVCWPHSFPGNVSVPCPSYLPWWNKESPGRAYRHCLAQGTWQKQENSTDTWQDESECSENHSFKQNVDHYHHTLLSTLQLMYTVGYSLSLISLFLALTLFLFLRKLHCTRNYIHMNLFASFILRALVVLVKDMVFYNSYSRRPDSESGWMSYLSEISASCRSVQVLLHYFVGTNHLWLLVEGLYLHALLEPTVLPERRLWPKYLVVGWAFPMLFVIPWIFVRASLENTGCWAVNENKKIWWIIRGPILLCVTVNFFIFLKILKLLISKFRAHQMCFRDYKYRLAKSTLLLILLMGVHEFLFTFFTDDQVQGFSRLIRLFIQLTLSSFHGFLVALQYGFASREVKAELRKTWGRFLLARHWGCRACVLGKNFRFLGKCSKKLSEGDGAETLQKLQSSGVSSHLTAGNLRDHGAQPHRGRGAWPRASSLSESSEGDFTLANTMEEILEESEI

C57BL/6J male mice [2] = test: Effect on intestinal wet weight in normal mice (FIG. 1); assay type: in vivo, mouse; conditions: once daily sc 270 nmol/kg (liraglutide iv 200 ug/kg), sacrificed on day 3, vs. vehicle
Method: Mice were sacrificed on day 3 and the wet weight of the small intestine was quantified. GLP-2 active peptides show significant enhancement of the small intestinal weight. […] N=6 animals / grp. *p < 0.05 vs. vehicle
C57BL/6J male mice (Charles River, Italy, ~8 weeks) are randomly allocated to the treatment group based on the baseline body weights. Animals are given free access to food and water during the whole duration of the study. Mice are dosed daily with the test compounds via subcutaneous injection. […] The abdominal cavity will be opened and the intestinal tissue is excised carefully to avoid perforation. Tissue from the upper small intestine (15 cm segment from the pylorus) is collected. The bowel is cleaned by flushing through with ice cold PBS to remove any feces.

mouse GLP1 receptor = target: T3, mouse GLP1 receptor (Mus musculus, UniProt O35659); test: cAMP accumulation assay (HTRF), functional agonism of mouse GLP1 receptor in HEK cells; assay type: cell-based; conditions: HEK cells transiently transfected, 45 min 37° C.
T3 construct: expressed in transfected cells; host or cells: HEK cells, transient transfection with GeneJuice
T3 sequence (O35659 22-463): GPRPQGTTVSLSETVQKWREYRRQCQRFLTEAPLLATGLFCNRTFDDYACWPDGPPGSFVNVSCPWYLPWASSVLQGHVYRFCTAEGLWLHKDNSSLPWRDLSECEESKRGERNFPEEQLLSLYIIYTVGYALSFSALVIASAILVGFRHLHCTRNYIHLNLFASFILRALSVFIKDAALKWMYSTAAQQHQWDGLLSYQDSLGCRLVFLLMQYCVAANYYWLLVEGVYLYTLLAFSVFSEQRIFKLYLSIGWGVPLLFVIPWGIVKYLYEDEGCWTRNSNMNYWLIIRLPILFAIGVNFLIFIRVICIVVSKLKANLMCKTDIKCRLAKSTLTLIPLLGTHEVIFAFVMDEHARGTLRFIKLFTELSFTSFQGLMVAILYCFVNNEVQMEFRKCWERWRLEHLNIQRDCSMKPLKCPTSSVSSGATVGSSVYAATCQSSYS

human GLP2 receptor = target: T4, human GLP2 receptor (Homo sapiens, UniProt O95838); test: cAMP accumulation assay (HTRF), functional agonism of human GLP2 receptor in HEK cells;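 note: HEK cells transduced via BacMam to express human GLP2 receptor, agonist-stimulated cAMP measured by HTRF after 45 min at 37 °C in HBSS with 0.5 mM IBMX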
T4 sequence (O95838 1-553): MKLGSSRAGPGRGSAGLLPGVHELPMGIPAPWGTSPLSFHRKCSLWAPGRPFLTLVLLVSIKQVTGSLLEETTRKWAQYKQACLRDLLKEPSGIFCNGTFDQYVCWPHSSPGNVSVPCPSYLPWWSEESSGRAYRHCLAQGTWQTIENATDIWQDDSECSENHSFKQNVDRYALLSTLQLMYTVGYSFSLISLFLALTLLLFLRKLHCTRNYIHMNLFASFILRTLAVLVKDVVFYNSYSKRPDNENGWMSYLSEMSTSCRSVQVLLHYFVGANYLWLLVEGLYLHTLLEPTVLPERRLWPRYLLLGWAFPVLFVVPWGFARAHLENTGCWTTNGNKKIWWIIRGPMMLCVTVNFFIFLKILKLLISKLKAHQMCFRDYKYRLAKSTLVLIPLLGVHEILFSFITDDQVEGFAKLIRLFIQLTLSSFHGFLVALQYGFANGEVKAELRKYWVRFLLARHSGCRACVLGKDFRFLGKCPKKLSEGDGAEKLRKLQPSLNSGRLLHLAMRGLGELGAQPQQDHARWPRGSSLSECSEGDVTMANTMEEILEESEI
Method: The functional activity of the peptides were assessed using a HTRF cAMP assay. pEC50 values are quoted.
cAMP production upon agonist stimulation of human GLP2 or GLP1 receptor was assessed utilizing HiRange cAMP kit (Cisbio). In brief, HEK cells were infected with either human GLP2 or GLP1 receptor BacMam virus for 24 hours and frozen for later use in the assay. […] Cells were prepared in the assay buffer (HBSS (Lonza) supplemented with 0.5 mM IBMX (Tocris)). After 45 min incubation at 37° C., the reaction was stopped by addition of the HTRF detection reagents in the lysis buffer provided in the kit.

C57BL/6J male mice [3] = test: Effect on glucose tolerance (OGTT) in normal mice (FIG. 3); assay type: in vivo, mouse; conditions: mice fasted 6 h, 270 nmol/kg sc 1 hour before 2 g/kg oral glucose (liraglutide 200 ug/kg iv)
Method: One hour before glucose challenge, Example 1 or 3 (270 nmol/kg) or vehicle (0.1% Tween80 in PBS) was administered as a single subcutaneous injection. […] Serial blood glucose measurements were taken at baseline and at timepoints post oral glucose challenge. (A) Time course of blood glucose levels. N=6 animals / grp. Mean +/-SEM.
C57BL/6J male mice (Charles River, Italy, ~8w) are fasted for 6 hours on the day of testing with free access to drinking water. Prior to drug dosing, pre-dose blood glucose measurements are taken using a glucometer (ACCU-CHEK performa, Roche Diagnostic GmbH). Animals are dosed with either the vehicle (0.1% Tween80 in PBS) or compound (270 nmol/kg) via subcutaneous injection. […] 1 hour after dosing, mice are given 2 g/kg oral gavage of glucose and blood is sampled at defined time points for analysis of blood glucose levels. Timepoints of sampling: t=0 (prior to glucose dosing), 15 mins, 30 mins, 60 mins, 120 mins and 180 mins.

Structure (SMILES): C=CCOC(=O)NCCCC[C@H](NC(=O)[C@H](CC(C)C)NC(=O)[C@H](CC(=O)O)NC(=O)[C@H](CC(C)C)NC(=O)[C@@H](NC(=O)[C@@H](NC(=O)[C@@H](Cc1ccccc1)NC(=O)[C@H](CCCC)NC(=O)[C@H](CCC(=O)O)NC(=O)[C@H](CC(=O)O)NC(=O)[C@H](CO)NC(=O)[C@](C)(Cc1ccccc1F)NC(=O)[C@H](CO)NC(=O)CNC(=O)[C@H](Cc1nn[nH]n1)NC(=O)C(C)(C)C(=O)NCCc1c[nH]cn1)[C@@H](C)O)[C@@H](C)CC)C(=O)N[C@@H](C)C(=O)N[C@@H](C)C(=O)N[C@@H](CCCCN)C(=O)N[C@@H](CC(=O)O)C(=O)N[C@@H](Cc1ccccc1)C(=O)N[C@H](C(=O)N[C@@H](CC(N)=O)C(=O)N[C@@H](Cc1c[nH]c2ccccc12)C(=O)N[C@@H](CC(C)C)C(=O)N[C@H](C(=O)N[C@@H](CCC(N)=O)C(=O)N[C@H](C(=O)N[C@@H](CCCCN)C(=O)N[C@H](C(=O)N[C@H](C(=O)N[C@@H](CC(=O)O)C(N)=O)[C@@H](C)O)[C@@H](C)CC)[C@@H](C)O)[C@@H](C)CC)[C@@H](C)CC [Example 3] ({Malonyl(2,2-Me2,histaminyl)}-[Ala(1H-tetrazol-5-yl)]GS[αMePhe(2-F)]SDE[Nle][dF]TILDLK(Alloc)AAKDFINWLIQTKITD-NH2)
- enhancement of small bowel wet weight (over vehicle) as a function of dose (C57BL/6J male mice [1]): greater maximal enhancements in small intestinal wet weight compared to Teduglutide; also recorded: dose dependent enhancements in the wet weight of the small intestine
- Emax (human GLP1 receptor; HEK293, read-out: Human GLP-1R agonist cAMP Emax): 99.2%
- EC50 (human GLP1 receptor; read-out: Human GLP-1R agonist cAMP pEC50 (converted)): 0.0794 nM
- Emax (mouse GLP2 receptor; HEK293, read-out: Mouse GLP-2R agonist cAMP Emax): 103%
- EC50 (mouse GLP2 receptor; read-out: Mouse GLP-2R agonist cAMP pEC50 (converted)): 0.501 nM
- wet weight of the small intestine (C57BL/6J male mice [2]): superior enhancements in intestinal weight compared to Teduglutide; also recorded: Significant enhancement of intestinal wet weight
- Emax (mouse GLP1 receptor; HEK293, read-out: Mouse GLP-1 R agonist cAMP Emax): 99.5%
- EC50 (mouse GLP1 receptor; read-out: Mouse GLP-1 R agonist cAMP pEC50 (converted)): 0.398 nM
- EC50 (human GLP2 receptor): 0.0158 nM
- Emax (human GLP2 receptor; HEK293, read-out: Human GLP-2R agonist cAMP Emax): 102%
- peak blood glucose concentration in OGTT (C57BL/6J male mice [3]): significantly reduced
